These results are taken from patent US20030211605A1, “Derivation of midbrain dopaminergic neurons from embryonic stem cells” (priority 2003, published 2003).

Holding throughout (assay type): cell-based, mouse
For one assay, the system named is ES-derived neuron. Description: Patch clamp recording of synaptic activity of differentiated ES-derived neurons. The conditions noted are these: 10 mM, pressure application; 13 days of differentiation; FIG. 9B/9C. Background: The patch-clamp technique gives a direct electrical read-out from membranes.
The test system of assay [1] is ES cells. The assay is described as follows: Comparison of N2 and N3FL media: total, TUJ1+ and TH+ cells after differentiation. The conditions noted are these: for phenotype of the ES cell derived population: variation of concentration in the medium.
For assay [2], the system named is ES cells. Description: Yield of TH+ neurons (TH/TUJ1 immunocytochemistry) in differentiated ES cell cultures. The conditions noted are these: SHH 500 ng/ml, FGF8 100 ng/ml, cAMP 1 mM, ascorbic acid 200 μM, added at different stages; FIG. 4.
Procedure: Specifically, the cells were dissociated by adding a solution of 0.05% typsin and 0.04% EDTA to the plates and incubating at 37° C. for 5 minutes. The dissociated cells were plated on tissue culture plastic or glass coverslips at a concentration of 1.5-2×10^6 cm^2 in serum free N2 medium supplemented with 1 μg/ml of laminin and 10 ng/ml of basic fibroblast growth factor (bFGF, R&D Systems, Minneapolis, Minn.). The medium was also supplemented with murine aminoterminal fragment SHH (500 ng/ml); murine FGF8 isoform b (100 ng/ml, both from R& D System); and ascorbic acid (200 μM, Sigma). Control cultures were treated identically except that no SHH or FGF8 was applied during cell proliferation.
Differentiation (stage 5) was induced using a modification of Okabe et al., using N2 medium instead of N3FL medium. […]
Uniform random sampling procedure were used for cell counts and quantified using the fractionator technique (Gundersen et al., (1988) “Some new, simple and efficient stereological methods and their use in pathological research and diagnosis,” APIMS 96:379-394). […] Data expressed as mean±SEM.
Yield of TH+ neurons is expressed as a percentage of all TUJ1+ neurons.

For the molecule `NCCCC(=O)O` [GABA, gamma amino butyric acid], the “response to application to the dendrites of a differentiated neuron” value in the assay on ES-derived neuron is “inward current”.

On to `O=S(=O)(O)CCN1CCN(CCO)CC1` [HEPES, 4-(2-hydroxyethyl)-1-piperazine-ethanesulfonic acid], for which, in the assay with ES cells [1] (substitution of bicarbonate (N2) by HEPES (N3FL), FIG. 8), the “percentage of TUJ1 and TH+ cells” value is recorded as “dramatically reduced”.

Turning to `O=C1O[C@H]([C@@H](O)CO)C(O)=C1O` [ascorbic acid], the “yield of TH+ neurons (percentage of all TUJ1+ neurons)” value in the assay with ES cells [2] is “increase the yield of TH+ neurons”.

With `N[C@@H](CCC(=O)O)C(=O)O` [glutamate], the “response to application to the dendrites of a differentiated neuron” value in the assay on ES-derived neuron is listed as “inward current”.

With `NC(=O)CC[C@H](N)C(=O)O` [glutamine], the “phenotype of the ES cell derived population” value in the assay on ES cells [1] was “did not significantly affect”.

transferrin: the “phenotype of the ES cell derived population” value in the assay with ES cells [1] is listed as “did not significantly affect”.
